From US20250213603A1, “PHARMACEUTICAL COMPOSITION FOR TREATING CANCER” (SAGA UNIVERSITY, priority 2021, published 2025) come the findings set out here.

This assay relates to leukemia cell lines (K562, BV173, Ba/F3 p190, Ba/F3 p210, MYL-R, K562-IMR, and KBM5-STI). In words: Comparison of cytotoxic activity across leukemia cell lines (MTT assay). It counts as cell-based. As to conditions: Example 3. Here is the method:
The proliferation inhibitory action in leukemia cell lines was evaluated using a modified dimethyl-thiazole-diphenyl-tetrazolium (MTT) assay as follows.
The hepatocyte line and leukemia cell lines (K562, BV173, Ba/F3 p190, Ba/F3 p210, MYL-R, K562-IMR, and KBM5-STI) were used in this example. The FA-HP-β-CyD synthesized in Example 1 was used.
The cell viability was evaluated using the trypan blue dye exclusion method. Cell proliferation was evaluated using a Cell Counting Kit-8 (Dojindo, Japan), which is an MTT assay. 2×10^4 of each cell was seeded with 100 μL RPMI1640 medium (Sigma-Aldrich, USA) per well to a flatbottom 96-well plate (Greiner Labortechnik, Hamburg, Germany), and incubation for 72 hours was carried out with exposure to HP-β-CyD and FA-HP-β-CyD at different concentrations (0 mM (control: CT), 0.05 mM, 0.1 mM, 0.25 mM, 0.5 mM, and 1 mM).
According to Table 1, IC50 for FA-HP-β-CyD in the leukemia cell lines (K562, BV173, Ba/F3 p190, Ba/F3 p210, MYL-R, K562-IMR, and KBM5-STI) is shown to be about ⅕ to about 1/20 of that for HP-β-CyD. […] FA-HP-β-CyD is thus shown to have a stronger cytotoxic activity than HP-β-CyD.
In general terms: Tetrazolium assays rely on reduction of a dye to a coloured formazan, in cell work by metabolically active cells.

For the substance “folic acid-appended hydroxypropyl-β-cyclodextrin [FA-HP-β-CyD]”, the “amount giving the equivalent anti-leukemia action relative to un-appended HP-β-CyD” value is given as “approximately one-tenth the amount”.
